Measurements as given in PubChem BioAssay (NCI).
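Five compound concentrations were applied to cells in 96-well plates for 48 hours; endpoints were derived by simple linear interpolation of the resulting dose-response curve. At the GI50, growth is halved. The concentration for full growth arrest is given as TGI.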

How the values were obtained:
Test in all cases: growth of human tumour cells (NCI), 48 h
786-0 renal = tested on: 786-0 renal
A498 renal = tested on: A498 renal
A549 NSCLC = tested on: A549 NSCLC
ACHN renal = tested on: ACHN renal
BT-549 breast = tested on: BT-549 breast
CAKI-1 renal = tested on: CAKI-1 renal
CCRF-CEM leukemia = tested on: CCRF-CEM leukemia
COLO 205 colon = tested on: COLO 205 colon
DU-145 prostate = tested on: DU-145 prostate
EKVX NSCLC = tested on: EKVX NSCLC
HCC-2998 colon = tested on: HCC-2998 colon
HCT-116 colon = tested on: HCT-116 colon
HCT-15 colon = tested on: HCT-15 colon
HL-60(TB) leukemia = tested on: HL-60(TB) leukemia
HOP-62 NSCLC = tested on: HOP-62 NSCLC
HOP-92 NSCLC = tested on: HOP-92 NSCLC
HS 578T breast = tested on: HS 578T breast
HT29 colon = tested on: HT29 colon
K-562 leukemia = tested on: K-562 leukemia
KM12 colon = tested on: KM12 colon
LOX IMVI melanoma = tested on: LOX IMVI melanoma
M14 melanoma = tested on: M14 melanoma
MALME-3M melanoma = tested on: MALME-3M melanoma
MCF7 breast = tested on: MCF7 breast
MDA-MB-231 breast = tested on: MDA-MB-231 breast
MDA-MB-435 = tested on: MDA-MB-435
MOLT-4 leukemia = tested on: MOLT-4 leukemia
NCI-H226 lung = tested on: NCI-H226 lung
NCI-H23 lung = tested on: NCI-H23 lung
NCI-H460 lung = tested on: NCI-H460 lung
NCI-H522 lung = tested on: NCI-H522 lung
NCI/ADR-RES ovarian = tested on: NCI/ADR-RES ovarian
OVCAR-3 ovarian = tested on: OVCAR-3 ovarian
OVCAR-4 ovarian = tested on: OVCAR-4 ovarian
OVCAR-5 ovarian = tested on: OVCAR-5 ovarian
OVCAR-8 ovarian = tested on: OVCAR-8 ovarian
PC-3 prostate = tested on: PC-3 prostate
RPMI-8226 leukemia = tested on: RPMI-8226 leukemia
RXF 393 renal = tested on: RXF 393 renal
SF-268 CNS = tested on: SF-268 CNS
SF-295 CNS = tested on: SF-295 CNS
SF-539 CNS = tested on: SF-539 CNS
SK-MEL-2 melanoma = tested on: SK-MEL-2 melanoma
SK-MEL-28 melanoma = tested on: SK-MEL-28 melanoma
SK-MEL-5 melanoma = tested on: SK-MEL-5 melanoma
SK-OV-3 ovarian = tested on: SK-OV-3 ovarian
SN12C renal = tested on: SN12C renal
SNB-19 CNS = tested on: SNB-19 CNS
SNB-75 CNS = tested on: SNB-75 CNS
SW-620 colon = tested on: SW-620 colon
T-47D breast = tested on: T-47D breast
TK-10 renal = tested on: TK-10 renal
U251 CNS = tested on: U251 CNS
UACC-257 melanoma = tested on: UACC-257 melanoma
UACC-62 melanoma = tested on: UACC-62 melanoma
UO-31 renal = tested on: UO-31 renal

Question: What does the source list for c1cc2c(cn1)Nc1ccncc1S2?
Answer: GI50 (786-0 renal): 23.7 µM; TGI (786-0 renal): 78.1 µM; GI50 (A498 renal): 19.5 µM; TGI (A498 renal): 55.4 µM; GI50 (A549 NSCLC): 32.8 µM; TGI (A549 NSCLC): > 100 µM; GI50 (ACHN renal): 26.8 µM; TGI (ACHN renal): > 100 µM; GI50 (BT-549 breast): 59.5 µM; TGI (BT-549 breast): > 100 µM; GI50 (CAKI-1 renal): > 100 µM; TGI (CAKI-1 renal): > 100 µM; GI50 (CCRF-CEM leukemia): 37.3 µM; TGI (CCRF-CEM leukemia): > 100 µM; GI50 (COLO 205 colon): 11.8 µM; TGI (COLO 205 colon): 59.5 µM; GI50 (DU-145 prostate): 44.5 µM; TGI (DU-145 prostate): > 100 µM; GI50 (EKVX NSCLC): 55.8 µM; TGI (EKVX NSCLC): > 100 µM; GI50 (HCC-2998 colon): 49.8 µM; TGI (HCC-2998 colon): > 100 µM; GI50 (HCT-116 colon): 17.9 µM; TGI (HCT-116 colon): 69.5 µM; GI50 (HCT-15 colon): 37.4 µM; TGI (HCT-15 colon): > 100 µM; GI50 (HL-60(TB) leukemia): 20.5 µM; TGI (HL-60(TB) leukemia): 68.5 µM; GI50 (HOP-62 NSCLC): 14.9 µM; TGI (HOP-62 NSCLC): 57.4 µM; GI50 (HOP-92 NSCLC): 8.52 µM; TGI (HOP-92 NSCLC): 76.6 µM; GI50 (HS 578T breast): 29.6 µM; TGI (HS 578T breast): > 100 µM; GI50 (HT29 colon): 58 µM; TGI (HT29 colon): > 100 µM; GI50 (K-562 leukemia): 55.4 µM; TGI (K-562 leukemia): > 100 µM; GI50 (KM12 colon): 32.3 µM; TGI (KM12 colon): > 100 µM; GI50 (LOX IMVI melanoma): 33.2 µM; TGI (LOX IMVI melanoma): > 100 µM; GI50 (M14 melanoma): 32.6 µM; TGI (M14 melanoma): > 100 µM; GI50 (MALME-3M melanoma): > 100 µM; TGI (MALME-3M melanoma): > 100 µM; GI50 (MCF7 breast): 32.9 µM; TGI (MCF7 breast): > 100 µM; GI50 (MDA-MB-231 breast): 98.9 µM; TGI (MDA-MB-231 breast): > 100 µM; GI50 (MDA-MB-435): 73.9 µM; TGI (MDA-MB-435): > 100 µM; GI50 (MOLT-4 leukemia): 33.4 µM; TGI (MOLT-4 leukemia): > 100 µM; GI50 (NCI-H226 lung): 49.2 µM; TGI (NCI-H226 lung): > 100 µM; GI50 (NCI-H23 lung): 43.4 µM; TGI (NCI-H23 lung): > 100 µM; GI50 (NCI-H460 lung): 27.8 µM; TGI (NCI-H460 lung): > 100 µM; GI50 (NCI-H522 lung): 40.4 µM; TGI (NCI-H522 lung): > 100 µM; GI50 (NCI/ADR-RES ovarian): 37.1 µM; TGI (NCI/ADR-RES ovarian): > 100 µM; GI50 (OVCAR-3 ovarian): 83 µM; TGI (OVCAR-3 ovarian): > 100 µM; GI50 (OVCAR-4 ovarian): > 100 µM; TGI (OVCAR-4 ovarian): > 100 µM; GI50 (OVCAR-5 ovarian): 25.2 µM; TGI (OVCAR-5 ovarian): > 100 µM; GI50 (OVCAR-8 ovarian): 35.7 µM; TGI (OVCAR-8 ovarian): > 100 µM; GI50 (PC-3 prostate): 41.7 µM; TGI (PC-3 prostate): > 100 µM; GI50 (RPMI-8226 leukemia): 36.3 µM; TGI (RPMI-8226 leukemia): > 100 µM; GI50 (RXF 393 renal): 15.6 µM; TGI (RXF 393 renal): 42.3 µM; GI50 (SF-268 CNS): 30.5 µM; TGI (SF-268 CNS): > 100 µM; GI50 (SF-295 CNS): 52.7 µM; TGI (SF-295 CNS): > 100 µM; GI50 (SF-539 CNS): 33.8 µM; TGI (SF-539 CNS): > 100 µM; GI50 (SK-MEL-2 melanoma): 35.2 µM; TGI (SK-MEL-2 melanoma): > 100 µM; GI50 (SK-MEL-28 melanoma): > 100 µM; TGI (SK-MEL-28 melanoma): > 100 µM; GI50 (SK-MEL-5 melanoma): 36.3 µM; TGI (SK-MEL-5 melanoma): > 100 µM; GI50 (SK-OV-3 ovarian): 15.2 µM; TGI (SK-OV-3 ovarian): 80.6 µM; GI50 (SN12C renal): 69.4 µM; TGI (SN12C renal): > 100 µM; GI50 (SNB-19 CNS): 39 µM; TGI (SNB-19 CNS): > 100 µM; GI50 (SNB-75 CNS): 43.9 µM; TGI (SNB-75 CNS): > 100 µM; GI50 (SW-620 colon): 35.4 µM; TGI (SW-620 colon): > 100 µM; GI50 (T-47D breast): 34.8 µM; TGI (T-47D breast): > 100 µM; GI50 (TK-10 renal): 42.7 µM; TGI (TK-10 renal): > 100 µM; GI50 (U251 CNS): 44.6 µM; TGI (U251 CNS): > 100 µM; GI50 (UACC-257 melanoma): 71.5 µM; TGI (UACC-257 melanoma): > 100 µM; GI50 (UACC-62 melanoma): 41.9 µM; TGI (UACC-62 melanoma): > 100 µM; GI50 (UO-31 renal): 23.5 µM; TGI (UO-31 renal): > 100 µM
